# Results: PMC3606385 (PLoS ONE, 2013)
# “Also recorded” adds a separate entry of the source. Where two headings read alike, the source gives them in different places.
# Assays:
# [1] = test system: mouse 11β-HSD2; parameters: method as in PMID 16103409; conditions: cited from earlier work
# [2] = test system: mouse 11β-HSD1; conditions: cited from earlier work
# [3] = target: T1, Human 11β-HSD2 (Homo sapiens, UniProt P80365); conditions: cited from earlier work
# T1 construct: The rat and human kidney microsomes were used for 11β-HSD2 sources; tissue Gentest (Woburn, MA); host or cells: human kidney microsomes
# T1 sequence (P80365 1-405): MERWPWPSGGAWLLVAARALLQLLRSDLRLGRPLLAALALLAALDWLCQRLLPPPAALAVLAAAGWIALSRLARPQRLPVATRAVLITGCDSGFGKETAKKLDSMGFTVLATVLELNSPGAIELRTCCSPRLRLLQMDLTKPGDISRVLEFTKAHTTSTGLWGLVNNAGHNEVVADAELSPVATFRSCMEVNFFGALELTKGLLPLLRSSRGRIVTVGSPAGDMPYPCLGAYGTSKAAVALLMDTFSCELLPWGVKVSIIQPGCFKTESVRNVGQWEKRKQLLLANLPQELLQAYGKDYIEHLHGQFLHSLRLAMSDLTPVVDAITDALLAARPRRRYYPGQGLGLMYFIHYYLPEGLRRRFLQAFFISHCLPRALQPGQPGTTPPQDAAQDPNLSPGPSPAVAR
# [4] = target: T2, Human 11β-HSD1 (Homo sapiens, UniProt P28845); conditions: cited from earlier work
# T2 construct: expressed in transfected cells; host or cells: CHOP cells (transient, FuGENE)
# T2 sequence (P28845 whole entry): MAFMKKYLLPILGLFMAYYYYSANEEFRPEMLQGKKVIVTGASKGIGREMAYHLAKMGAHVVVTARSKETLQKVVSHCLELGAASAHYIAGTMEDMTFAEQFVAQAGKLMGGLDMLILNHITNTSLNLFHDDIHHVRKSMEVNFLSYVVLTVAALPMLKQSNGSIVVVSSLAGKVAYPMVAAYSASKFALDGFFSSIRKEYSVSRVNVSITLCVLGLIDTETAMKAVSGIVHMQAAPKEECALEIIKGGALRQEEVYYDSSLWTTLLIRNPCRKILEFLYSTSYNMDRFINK
# [5] = test system: hyperglycemic KKAy mouse; parameters: method as in PMID 12190302; conditions: hyperglycemic KKAy mouse model; cited from earlier work
# [6] = target: T1, Human 11β-HSD2; experiment: 11β-HSD2 assay in human kidney microsomes; format: biochemical
# Description: (§1) The rat and human kidney microsomes were used for 11β-HSD2 sources. 11β-HSD2 activity was performed in the microsome according to a previously described method. In brief, the assay tubes contained 25 nM substrate CORT (for rat) or cortisol (for human), spiked with 30,000 cpm their respective ^3H-11β-hydroxyl steroid, 0.2 mM NAD+ and 0.1 mM DTT in the PBS buffer. 8 (rat) or 20 (human) µg kidney microsomes were added to each tube to initiate the reaction and the reaction mixture was incubated for up to 3 hrs, during which the reaction is within the linear range. The rest procedure was similar to 11β-HSD1 assay. The percentage conversion of CORT to 11DHC or cortisol to cortisone was calculated by dividing the radioactive counts identified as 11keto-steroids by the total counts.
# (§2) The IC50 was determined by adding different concentrations of each compound in the 11β-HSD1 or 11β-HSD2 reaction as described. The mode of inhibition was assayed by adding various concentrations of steroid substrates in the presence of an inhibitor as described.
# [7] = target: T3, human liver 11β-HSD1 (Homo sapiens, UniProt P28845); experiment: Mode of inhibition, human liver 11β-HSD1; format: biochemical; conditions: data not shown
# T3 construct: tissue Gentest (Woburn, MA); host or cells: human liver microsomes
# T3 sequence (P28845 whole entry): as above
# Description: (§3) The rat testis and liver or human liver microsomes were used for 11β-HSD1 assay. 11β-HSD1 activity was performed in the microsome according to a previously described method. In brief, the assay tubes contained 25 nM substrate 11DHC (for rat) or cortisone (for human), spiked with 30,000 cpm their respective ^3H-11keto-steroid, 0.2 mM NADPH and 5 mM glucose-6-phosphaare in the PBS buffer. 2 µg microsomes were added to each tube to initiate the reaction and the reaction mixture was incubated for up to 2 hrs, during which the reaction is within the linear range. The rest procedure was similar to 11β-HSD1 assay in intact cells.
# as §2
# (§4) Enzyme data were subjected to nonlinear analysis by GraphPad (Version 5, GraphPad Software Inc., San Diego, CA) for IC50. Lineweaver-Burk plot was used for the mode of inhibition. Data were subjected to analysis by one-way ANOVA followed by Tukey's multiple comparisons testing to identify significant differences between groups when three were calculated. Differences were regarded as significant at P<0.05.
# [8] = target: T4, Rat 11β-HSD2 (Rattus norvegicus, UniProt P50233); experiment: 11β-HSD2 assay in rat kidney microsomes; format: biochemical
# T4 construct: from tissue; host or cells: rat kidney microsomes
# T4 sequence (P50233 1-400): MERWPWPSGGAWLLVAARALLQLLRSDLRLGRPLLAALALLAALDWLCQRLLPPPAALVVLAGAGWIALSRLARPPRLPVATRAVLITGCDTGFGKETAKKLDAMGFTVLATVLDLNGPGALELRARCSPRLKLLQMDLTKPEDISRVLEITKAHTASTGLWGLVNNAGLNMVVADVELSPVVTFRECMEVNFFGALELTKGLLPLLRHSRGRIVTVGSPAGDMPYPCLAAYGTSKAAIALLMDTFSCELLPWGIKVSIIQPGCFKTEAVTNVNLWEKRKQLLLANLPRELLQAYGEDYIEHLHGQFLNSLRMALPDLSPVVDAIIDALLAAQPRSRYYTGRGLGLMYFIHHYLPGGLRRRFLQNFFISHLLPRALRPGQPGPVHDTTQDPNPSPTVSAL
# Description: Rats were euthanized by CO2, and livers, testes and kidneys were collected. Rat liver, testis and kidney microsomes were prepared as described previously. In brief, rat liver and kidney were homogenized in […] PBS buffer containing 0.25 M sucrose, and nuclei and large cell debris were removed by centrifugation at 1500× g for 10 min. The post-nuclear supernatants were centrifuged twice at 105,000×g, the resultant microsomal pellets were resuspended. Protein contents were measured by Bio-Rad Dye Reagent Concentrate (Cat.#500-0006). Microsomes were used for measurement of 11β-HSD1 and 11β-HSD2 activities.
# as §1, with “In brief, the assay tubes contained 25 nM substrate CORT (for rat) or cortisol (for human), spiked with 30,000 cpm their respective ^3H-11β-hydroxyl steroid, 0.2 mM NAD+ and 0.1 mM DTT in the PBS buffer.” left out
# as §2
# [9] = target: T5, Rat 11β-HSD1 (Rattus norvegicus, UniProt P16232); experiment: 11β-HSD1 assay in intact rat Leydig cells; format: cell-based; conditions: intact rat Leydig cells
# T5 construct: endogenous in cells; host or cells: primary adult Sprague-Dawley rat Leydig cells
# T5 sequence (P16232 whole entry): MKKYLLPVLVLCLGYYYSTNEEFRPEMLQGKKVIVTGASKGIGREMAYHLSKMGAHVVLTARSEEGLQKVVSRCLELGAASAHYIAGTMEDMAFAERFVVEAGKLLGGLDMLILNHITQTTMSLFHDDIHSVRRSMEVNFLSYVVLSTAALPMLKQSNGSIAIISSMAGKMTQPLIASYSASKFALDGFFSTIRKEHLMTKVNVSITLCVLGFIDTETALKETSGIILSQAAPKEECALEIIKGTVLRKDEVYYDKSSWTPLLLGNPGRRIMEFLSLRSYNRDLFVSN
# Description: Rat Leydig cells contain the highest 11β-HSD1 activity in all cell types of rat tissues, and were used for rat 11β-HSD1 enzyme sources. Purified rat Leydig cells were obtained from 90-day-old Sprague-Dawley rats by collagenase digestion of the testes followed by Percoll density centrifugation of the cell suspension, according to the previously described method. […] The purity of cell fractions was evaluated by histochemical staining for 3β-hydroxysteroid dehydrogenase activity with […] etiocholanolone as the steroid substrate.
# (§5) 11β-HSD1 reductase activity was performed in intact cells using endogenous cofactor NADPH as described previously. […] 25×10^3 cells were added to each tube to initiate the reaction and the reaction mixture was incubated for up to 2 hrs, during which the reaction is within the linear range. At the end of reaction, the reaction was stopped by adding 2 ml ice-cold ether. The steroids were extracted, and the organic layer was dried under nitrogen. The steroids were separated chromatographically on thin layer plates in chloroform and methanol (90∶10, v/v), and the radioactivity was measured using a scanning radiometer (System AR2000, Bioscan Inc., Washington, DC) as described previously. The percentage conversion of 11DHC to CORT or cortisone to cortisol was calculated by dividing the radioactive counts identified as 11-OH-steroids by the total counts.
# as §2
# [10] = target: T6, rat liver microsomal 11β-HSD1 (Rattus norvegicus, UniProt P16232); experiment: Mode of inhibition (Lineweaver-Burk), rat liver microsomal 11β-HSD1; format: biochemical; conditions: Lineweaver-Burk plot, substrate 11DHC
# T6 construct: Rat liver, testis and kidney microsomes were prepared as described previously; from tissue; host or cells: rat liver microsomes
# T6 sequence (P16232 whole entry): as above
# Description: as §3, §2, §4
# [11] = target: T2, Human 11β-HSD1; experiment: 11β-HSD1 assay in intact CHOP cells transfected with human HSD11B1; format: cell-based
# Description: An expression plasmid was constructed to express human 11β-HSD1 (HSD11B1) cDNA in pcDNA I expression vector from its original human HSD11B1 vector (pBluescriptSK+).[15]. The Escherichia coli transformants carrying an insert were selected by colony hybridization, and a clone with the insert in the correct orientation relative to the vector T7 promoter was identified by restriction mapping. All transfections were carried out on 80% confluent cultures in 12-well plates. Aliquots of 1 µg HSD11B1 pcDNA I were transfected into mammalian CHOP cells with the FuGENE Transfection Reagent (Roche) according to manufacturer's protocol. Cells were allowed to grow for 24 hours in media containing 10% fetal bovine serum. Then media were removed and cells were harvested for 11β-HSD1 activity assay.
# as §5, §2
compound,measurement,setting,value
C1CCc2nnc(C34CC5CC(CC(C5)C3)C4)n2CC1 [MK544],Selectivity over mouse 11β-HSD2,[1],> 100 fold
same,IC50,[2],0.098 µM
same,Selectivity over human 11β-HSD2,[3],> 450 fold
same,IC50,[4],0.0078 µM
BVT2733,Effect on blood glucose level,[5],significantly lowered
same,IC50,[2]; mouse enzyme,0.096 µM
"O=C(/C=C/c1cccs1)/C=C/c1cccs1 [compound 6, (1E,4E)-1,5-bis(thiophen-2-yl) penta-1,4-dien-3-one]",Inhibition of human 11β-HSD2 at 100 µM,[6]; 100 µM,did not inhibit
same,IC50,"[6]; human kidney microsomes, read-out: IC50 (nM) Human 11β-HSD2",> 100000 nM
same,Mode of inhibition of human 11β-HSD1,[7],same mode; also recorded: competitive inhibitor
same,Inhibition of rat 11β-HSD2 at 100 µM,[8]; 100 µM,did not inhibit
same,IC50,[8]; rat kidney microsomes,> 100000 nM
same,Rat 11β-HSD1 Potency to Curcumin (fold),[9]; relative to curcumin,31.44 fold
same,IC50,[9]; read-out: Rat 11β-HSD1 IC50 (nM) in Leydig cells,184 nM
same,Mode of inhibition of rat 11β-HSD1,[10],competitive mode; also recorded: competitive inhibitor
same,Human 11β-HSD1 Potency to Curcumin (fold),"[11]; CHOP cells transfected with human HSD11B1, relative to curcumin",24.68 fold
same,IC50,"[11]; CHOP cells transfected with human HSD11B1, read-out: Human 11β-HSD1 IC50 (nM) in CHOP cells",93 nM
